Reference: ChEMBL document CHEMBL1201862, “PubChem BioAssay data set” (2004)
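1) Cells in 96-well plates. 2) Compound, 48 h, 5 concentrations. 3) Linear interpolation between surrounding doses. 4) Unreached endpoint = highest concentration. GI50 = concentration required for 50% inhibition of growth.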 Active and inactive are the calls of the source. Cut-off read from the data, not from the text of the source: active = GI50 up to about 1.1 µM and inactive = higher.

How the values were obtained:
Test in all cases: NCI anticancer screen, dose series, 48 h
A498 = test system: A498
TK-10 = test system: TK-10
KM12 = test system: KM12
COLO 205 = test system: COLO 205
NCI-H522 = test system: NCI-H522
DLD-1 = test system: DLD-1
CAKI-1 = test system: CAKI-1
OVCAR-4 = test system: OVCAR-4
RXF 393 = test system: RXF 393
SNB-75 = test system: SNB-75
LOX IMVI = test system: LOX IMVI
OVCAR-8 = test system: OVCAR-8
SK-OV-3 = test system: SK-OV-3
SR = test system: SR
786-0 = test system: 786-0
SN12C = test system: SN12C
NCI/ADR-RES = test system: NCI/ADR-RES
BT-549 = test system: BT-549
PC-3 = test system: PC-3
DU-145 = test system: DU-145

| Structure (SMILES) | GI50 (A498) | GI50 (TK-10) | GI50 (KM12) | GI50 (COLO 205) | GI50 (NCI-H522) | GI50 (DLD-1) | GI50 (CAKI-1) | GI50 (OVCAR-4) | GI50 (RXF 393) | GI50 (SNB-75) | GI50 (LOX IMVI) | GI50 (OVCAR-8) | GI50 (SK-OV-3) | GI50 (SR) | GI50 (786-0) | GI50 (SN12C) | GI50 (NCI/ADR-RES) | GI50 (BT-549) | GI50 (PC-3) | GI50 (DU-145) |
| --- | --- | --- | --- | --- | --- | --- | --- | --- | --- | --- | --- | --- | --- | --- | --- | --- | --- | --- | --- | --- |
| O=C1NC(=O)C2C(=O)NC(=O)C1C2c1c(Cl)cccc1Cl (stereo not drawn) | > 100 µM (inactive) | > 100 µM (inactive) | > 69.2 µM (inactive) | > 41.8 µM (inactive) | > 77.1 µM (inactive) | > 43.3 µM (inactive) | > 100 µM (inactive) | > 100 µM (inactive) | > 43.1 µM (inactive) | > 63.5 µM (inactive) | > 43 µM (inactive) | > 66.2 µM (inactive) | > 100 µM (inactive) | > 100 µM (inactive) | > 61.8 µM (inactive) | > 83.6 µM (inactive) |  |  |  |  |
| NC1=C(O)c2cccc3cccc(c23)C1=O | > 100 µM (inactive) | > 100 µM (inactive) | > 100 µM (inactive) | > 100 µM (inactive) | > 100 µM (inactive) | > 100 µM (inactive) | > 100 µM (inactive) | > 100 µM (inactive) | > 100 µM (inactive) | > 100 µM (inactive) | > 100 µM (inactive) | > 100 µM (inactive) | > 100 µM (inactive) |  | > 100 µM (inactive) | > 100 µM (inactive) |  |  |  |  |
| CC(=O)NNc1nc(C)c(C(=O)NNC(=O)C(=O)Nc2ccc(Cl)cc2Cl)s1 |  | 74.3 µM (inactive) | 53.7 µM (inactive) | 35.9 µM (inactive) | 19.5 µM (inactive) | 38.4 µM (inactive) | 28.3 µM (inactive) | 22 µM (inactive) |  |  | 33.7 µM (inactive) | 40.2 µM (inactive) | 31.9 µM (inactive) |  | 40.7 µM (inactive) | 45.6 µM (inactive) |  |  |  |  |
| O=C(Nc1ccccc1)Oc1ccccc1C1CCCCC1 | 30.6 µM (inactive) | 28.8 µM (inactive) | 26.8 µM (inactive) | 15.8 µM (inactive) |  | 13.9 µM (inactive) |  | 14.6 µM (inactive) | 2.96 µM (inactive) | 6.38 µM (inactive) | 13.8 µM (inactive) | 29.6 µM (inactive) | 44.5 µM (inactive) | 14.8 µM (inactive) | 17.2 µM (inactive) | 18.9 µM (inactive) |  |  |  |  |
| Cc1c(C(=O)C/C(=N/NC(=O)c2ccccc2O)C(=O)Nc2ccccc2C(C)C)[n+]([O-])c2ccccc2[n+]1[O-] | > 100 µM (inactive) | > 100 µM (inactive) | 53.6 µM (inactive) | 31.7 µM (inactive) | 20.9 µM (inactive) | 31.8 µM (inactive) | 30.8 µM (inactive) | 31.8 µM (inactive) | 75.3 µM (inactive) | > 100 µM (inactive) | 32.1 µM (inactive) | 29.6 µM (inactive) | > 100 µM (inactive) |  | 49.7 µM (inactive) | 43.8 µM (inactive) |  |  |  |  |
| COc1cc([C@@H]2c3cc4c(cc3[C@@H](NC(=O)c3ccc(OC(C)=O)cc3)C3COC(=O)[C@@H]32)OCO4)cc(OC)c1O (stereo partly drawn) | 2.22 µM (inactive) | 10.7 µM (inactive) | 2.66 µM (inactive) | 10.2 µM (inactive) | 1.73 µM (inactive) | 2.96 µM (inactive) | 1.92 µM (inactive) | 39.9 µM (inactive) | 11.4 µM (inactive) | 1.48 µM (inactive) | 1.39 µM (inactive) | 2.48 µM (inactive) | 2.47 µM (inactive) |  | 1.22 µM (inactive) | 1 µM (active) |  |  |  |  |
| O=[N+]([O-])c1cc(Cl)cc2cc(Br)cnc12 | 23.6 µM (inactive) | 27.7 µM (inactive) | > 10 µM (inactive) | > 31.6 µM (inactive) | 29.6 µM (inactive) |  | > 10 µM (inactive) | > 31.6 µM (inactive) | > 31.6 µM (inactive) | > 31.6 µM (inactive) | > 31.6 µM (inactive) | 24.1 µM (inactive) | > 10 µM (inactive) | > 31.6 µM (inactive) | 21.4 µM (inactive) | > 31.6 µM (inactive) | > 31.6 µM (inactive) | 28.1 µM (inactive) | > 31.6 µM (inactive) | > 31.6 µM (inactive) |
| Cc1c2ccnc(O)c2cc2c(=O)c3cnccc3[nH]c12 | > 100 µM (inactive) | > 100 µM (inactive) | > 100 µM (inactive) | > 100 µM (inactive) | > 100 µM (inactive) | > 100 µM (inactive) | > 100 µM (inactive) | > 100 µM (inactive) | > 100 µM (inactive) | > 100 µM (inactive) | > 100 µM (inactive) | > 100 µM (inactive) | > 100 µM (inactive) |  | > 100 µM (inactive) | > 100 µM (inactive) |  |  |  |  |
| C1CN(C23OC4(N5CCOCC5)C5C6CC(C7C6C4C72)C53)CCO1 (stereo not drawn) | > 100 µM (inactive) | > 100 µM (inactive) | > 100 µM (inactive) | > 100 µM (inactive) | > 83.4 µM (inactive) |  | > 100 µM (inactive) | > 100 µM (inactive) | > 100 µM (inactive) | > 70.8 µM (inactive) | > 100 µM (inactive) | > 100 µM (inactive) | > 100 µM (inactive) | > 100 µM (inactive) | > 100 µM (inactive) | > 100 µM (inactive) | > 100 µM (inactive) | > 100 µM (inactive) | > 100 µM (inactive) | > 100 µM (inactive) |
| Cc1c(/C=C2\CC/C(=C\c3[nH]c(C(=O)OC(C)(C)C)c(C)c3C)C2=O)[nH]c(C(=O)OC(C)(C)C)c1C | > 100 µM (inactive) | > 100 µM (inactive) | > 100 µM (inactive) | > 100 µM (inactive) | > 100 µM (inactive) | > 100 µM (inactive) | > 100 µM (inactive) | > 100 µM (inactive) | > 100 µM (inactive) | 60.1 µM (inactive) | > 100 µM (inactive) | > 100 µM (inactive) | > 100 µM (inactive) | > 100 µM (inactive) | > 100 µM (inactive) | > 100 µM (inactive) |  |  |  |  |
| C=C1CC/C=C(\C)C(=O)C[C@@H]2[C@@H]1CC2(C)C [BUDDLEDIN C] | 8.59 µM (inactive) | 3.13 µM (inactive) | 15 µM (inactive) | 1.8 µM (inactive) | 0.439 µM (active) |  | 1.38 µM (inactive) | 0.743 µM (active) | 1.85 µM (inactive) | 10.6 µM (inactive) | 1.17 µM (inactive) | 4.7 µM (inactive) | 20.3 µM (inactive) | 0.0578 µM (active) | 0.975 µM (active) | 1.59 µM (inactive) | 4.53 µM (inactive) | 2.45 µM (inactive) | 9.14 µM (inactive) | 3.16 µM (inactive) |
| COc1cc(CO)cc2c1[nH]c1ccccc12 [KOENOLINE] |  | > 25 µM (inactive) | > 25 µM (inactive) | > 25 µM (inactive) | 24.6 µM (inactive) | > 25 µM (inactive) |  | > 25 µM (inactive) | > 25 µM (inactive) |  | > 25 µM (inactive) | > 25 µM (inactive) | > 25 µM (inactive) | > 25 µM (inactive) | > 25 µM (inactive) | > 25 µM (inactive) |  |  |  |  |
